Source: patent US10208033B2, “β-carboline, dihydro-β-carboline and tetrahydro-β-carboline alkaloid derivatives and preparation methods same and use in aspects of preventing and treating plant viruses, fungicides and insecticides” (NANKAI UNIVERSITY, priority 2013, dated 2019)

Experiments:
[1] = tested on: tobacco mosaic virus (TMV); experiment: Anti-TMV in vitro effect (half-leaf soaking); format: cell-based, tobacco mosaic virus (host Nicotiana tabacum L.cv.Xanthi NN); details: Tobacco mosaic virus, read-out: Relative inhibition rate (%) In vitro activity; for inhibition at 100 µg/mL: treatment dose 100 μg/mL; for inhibition at 500 µg/mL: treatment dose 500 μg/mL
[2] = tested on: tobacco mosaic virus (TMV); experiment: Anti-TMV in vivo inactivation; set-up: species or system tobacco mosaic virus (host Nicotiana tabacum L.cv.Xanthi NN); details: Tobacco mosaic virus, read-out: Relative inhibition rate (%) In vivo inactivation; for inhibition at 100 µg/mL: treatment dose 100 μg/mL; for inhibition at 500 µg/mL: treatment dose 500 μg/mL
[3] = tested on: tobacco mosaic virus (TMV); experiment: Anti-TMV in vivo therapeutic effect; set-up: species or system tobacco mosaic virus (host Nicotiana tabacum L.cv.Xanthi NN); details: Tobacco mosaic virus, read-out: Relative inhibition rate (%) In vivo therapy; for inhibition at 100 µg/mL: treatment dose 100 μg/mL; for inhibition at 500 µg/mL: treatment dose 500 μg/mL
[4] = tested on: tobacco mosaic virus (TMV); experiment: Anti-TMV in vivo protective effect; set-up: species or system tobacco mosaic virus (host Nicotiana tabacum L.cv.Xanthi NN); details: Tobacco mosaic virus, read-out: Relative inhibition rate (%) In vivo protection; for inhibition at 100 µg/mL: treatment dose 100 μg/mL; for inhibition at 500 µg/mL: treatment dose 500 μg/mL
[5] = tested on: cucumber fusarium wilt; experiment: Fungicidal (bactericidal) activity in vitro, PDA colony diameter; format: cell-based; details: Fusarium, 96 h; 50 mg/kg
[6] = tested on: Cercospora arachidicola; experiment: as above; format: cell-based; details: Mycosphaerella arachidis, 96 h; 50 mg/kg
[7] = tested on: Macrophoma kawatsukai; experiment: as above; format: cell-based; details: 50 mg/kg
[8] = tested on: Alternaria solani; experiment: as above; format: cell-based; details: Alternaria solani, 96 h; 50 mg/kg
[9] = tested on: Fusarium graminearumt; experiment: microbe, parasite or virus in culture; format: cell-based; details: Fusarium, 96 h, read-out: Bactericidal activity (%) Fusarium graminearumt
[10] = tested on: potato late blight; experiment: microbe, parasite or virus in culture; format: cell-based; details: Phytophthora infestans, 96 h, read-out: Bactericidal activity (%) potato late blight
[11] = tested on: Sclerotinia scleotiorum; experiment: Fungicidal (bactericidal) activity in vitro, PDA colony diameter; format: cell-based; details: Sclerotinia, 96 h; 50 mg/kg
[12] = tested on: Botrytis cinerea; experiment: as above; format: cell-based; details: Botrytis cinerea, 96 h; 50 mg/kg
[13] = tested on: Rhizoctonia solani; experiment: as above; format: cell-based; details: Rhizoctonia solani, 96 h; 50 mg/kg
[14] = tested on: Phytophthora capsici; experiment: as above; format: cell-based; details: Phytophthora capsici, 96 h; 50 mg/kg
[15] = tested on: Fusarium fujikuroi; experiment: as above; format: cell-based; details: Fusarium fujikuroi, 96 h; 50 mg/kg
[16] = tested on: Rhizoctonia cereali; experiment: as above; format: cell-based; details: Rhizoctonia, 96 h; 50 mg/kg
[17] = tested on: Bipolaria maydis; experiment: organism not typed; format: cell-based; details: read-out: Bactericidal activity (%) Bipolaria maydis
[18] = tested on: Colletotrichum orbiculare; experiment: Fungicidal (bactericidal) activity in vitro, PDA colony diameter; format: cell-based; details: Colletotrichum orbiculare, 96 h; 50 mg/kg
[19] = tested on: armyworms; format: in vivo; details: concentration 600 mg/kg
[20] = tested on: cotton bollworms; experiment: whole plant or invertebrate; details: Helicoverpa armigera, in Gossypium hirsutum, read-out: Cotton bollworm Mortality (%)
Protocol: Experimental method of cotton bollworms: feed and drug mixing method: measure 3 mL of prepared solution and add it to about 27 g of newly prepared feed, thereby obtaining needed concentration through dilution by 10 times.

[21] = tested on: mosquito larvae; experiment: whole plant or invertebrate; details: Culex pipiens, 24 h, read-out: Mosquito larvae Mortality (%)
Procedure, shortened: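 Early fourth-instar Culex pipiens pallens larvae from an indoor colony, 10 per beaker, exposed to test compound at 5 ppm in water, diluted from a 1000 ppm acetone mother solution. Blank: water containing 0.5 mL test solvent.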

[22] = tested on: tobacco mosaic virus (TMV); experiment: Anti-TMV activity, overall statements on Table 1; format: in vivo, tobacco mosaic virus (host Nicotiana tabacum L.cv.Xanthi NN); details: 100 μg/mL versus ningnanmycin at 100 μg/mL
[23] = tested on: corn borers; experiment: whole plant or invertebrate; details: read-out: Corn borer Mortality (%)

Compound | inhibition at 100 µg/mL [1] [%] | inhibition at 500 µg/mL [1] [%] | inhibition at 100 µg/mL [2] [%] | inhibition at 500 µg/mL [2] [%] | inhibition at 100 µg/mL [3] [%] | inhibition at 500 µg/mL [3] [%] | inhibition at 100 µg/mL [4] [%] | inhibition at 500 µg/mL [4] [%] | inhibition of growth at 50 mg/kg [5] [%] | inhibition of growth at 50 mg/kg [6] [%] | inhibition at 50 mg/kg [7] [%] | inhibition of growth at 50 mg/kg [8] [%] | inhibition of growth at 50 mg/kg [9] [%] | inhibition of growth at 50 mg/kg [10] [%] | inhibition of growth at 50 mg/kg [11] [%] | inhibition of growth at 50 mg/kg [12] [%] | inhibition of growth at 50 mg/kg [13] [%] | inhibition of growth at 50 mg/kg [14] [%] | inhibition of growth at 50 mg/kg [15] [%] | inhibition of growth at 50 mg/kg [16] [%] | also measured
CC1=NCCc2c1[nH]c1ccccc21 [Harmalan] | 30 | 58.6 | 32.7 | 62.3 | 34.8 | 55.1 | 35.6 | 60.3 | 23.1 | 76.9 | 2.4 | 26.3 | 21.4 | 31.8 | 19.6 | 15.2 | 19.7 | 0 | 28.6 | 55.3 | inhibition at 50 mg/kg [17]: 27.3%; inhibition of growth at 50 mg/kg [18]: 25%; Armyworm Mortality (%) [19]: 20%; mortality at 600 mg/kg [20]: 10%; mortality at 10 mg/kg [21]: 35%; anti-TMV activity compared with ningnanmycin [22]: equivalent to the activity of commercial variety ningnanmycin; mortality at 600 mg/kg [23]: 15%
C[C@@H]1N[C@H](C(=O)NN)Cc2c1[nH]c1ccccc21 [Ib-15, (1S, 3S)-1-methyl-2,3,4,9-tetrahydropyridino [3,4-b] indol-3-formylhydrazine] | 21.4 | 50 | 16.5 | 46 | 20.3 | 48.2 | 23.4 | 49.6 | 13.6 | 18.2 | 39.4 | 9.5 | 38.5 | 26.1 | 30.8 | 27.8 | 4.2 | 51.5 | 29.4 | 54.1 | inhibition at 50 mg/kg [17]: 24%; inhibition of growth at 50 mg/kg [18]: 24%; Armyworm Mortality (%) [19]: 20%; mortality at 600 mg/kg [20]: 20%; mortality at 10 mg/kg [21]: 40%; anti-TMV activity compared with ningnanmycin [22]: equivalent to the activity of commercial variety ningnanmycin; mortality at 600 mg/kg [23]: 30%
C[C@@H]1N[C@H](C(=O)NNC(=O)c2cccc3nnsc23)Cc2c1[nH]c1ccccc21 [Id-1, N′-((1S, 3S)-1-methyl-2,3,4,9-tetrahydropyridino [3,4-b]indol-3-tricarboxylate)benzo [d] [1,2, 3] thiadiazole-7-formylhydrazine] | 22.6 | 52.1 | 16.2 | 44.1 | 26.8 | 54.5 | 29.9 | 58.3 | 13.6 | 18.2 | 51.5 | 19 | 61.5 | 17.4 | 26.9 | 44.4 | 1.4 | 27.3 | 47.1 | 43.2 | inhibition at 50 mg/kg [17]: 36%; inhibition of growth at 50 mg/kg [18]: 32%; Armyworm Mortality (%) [19]: 35%; mortality at 600 mg/kg [20]: 15%; mortality at 10 mg/kg [21]: 75%; anti-TMV activity compared with ningnanmycin [22]: equivalent to the activity of commercial variety ningnanmycin; mortality at 600 mg/kg [23]: 35%
